Experimental data as given in publication PMC5643462, “Encrypted Antimicrobial Peptides from Plant Proteins” (Scientific Reports, 2017).
In brackets after ≈: the same amount, converted by molar mass.

Columns and labels:
[1] = system: Ramularia areola; test: microbe, parasite or virus in culture; settings: Ramulariopsis gossypii, 120 h, pH 7, read-out: Minimum inhibitory concentration, Ramularia areola
Protocol: (§1) The susceptibility test of microorganisms was performed to evaluate the inhibitory activity of the IAPs. Protocols M7-A10[50], M27-A3[51] and M38-A2[52] from Clinical & Laboratory Standards Institute (CLSI) were used for bacteria, yeasts and filamentous fungi tests, respectively. Briefly, different concentration of IAPs (256-0.5 µM) were tested against 16 microorganisms, in a final volume of 100 µL. Media conditions, final cell concentration and incubation conditions are presented in Supplementary Material 07, Table S5. Three biological repetitions, with 2 technical replicates each, were performed for each test, on polystyrene flat-bottom 96 wells microplates. The minimum inhibitory concentration (MIC) was defined as the concentration that no cells/hyphae were detected when visualized by optical microscopy.
(§2) Supplementary Material 07, Table S5
(§3) Table S5. Microorganisms and growth conditions.

[2] = system: Cryptococcus neoformans; test: microbe, parasite or virus in culture; settings: Cryptococcus neoformans, ATCC28957, 72 h, pH 7, read-out: Minimum inhibitory concentration, Cryptococcus neoformans
Protocol: as §1, §2, §3

[3] = system: Trichoderma asperellum; test: microbe, parasite or virus in culture; settings: Trichoderma asperellum, 48 h, pH 7, read-out: Minimum inhibitory concentration, Trichoderma asperellum
Protocol: as §1, §2, §3

[4] = system: Fusarium oxysporum; test: microbe, parasite or virus in culture; settings: Fusarium oxysporum, 48 h, pH 7, read-out: Minimum inhibitory concentration, Fusarium oxysporum
Protocol: as §1, §2, §3

[5] = system: Candida albicans; test: microbe, parasite or virus in culture; settings: Candida albicans, ATCC90028, 48 h, pH 7, read-out: Minimum inhibitory concentration, Candida albicans
Protocol: as §1, §2, §3

[6] = system: Escherichia coli; test: Microbicidal activity (minimal killing concentration), plating on agar; type: cell-based, Escherichia coli ATCC 25922; settings: 10 µL of MIC and raising concentrations up to 256 µM plated on Mueller-Hinton agar; 37 °C, 24 h; no growth; mean ± SD, 3 biological replicates
Protocol: (§4) The microbicidal activity of the IAPS was also evaluated. […] YPD agar and Mueller-Hinton agar were used for fungi/yeasts and bacteria, respectively. Meanwhile, susceptibility microplates were incubated again to evaluate if there would be any growing after a longer period. For both approaches, the minimal killing concentration (MKC) was defined as the concentration that no growth was observed after incubation. Three biological replicates were performed for each test.
as §2, §3
(§5) Microorganisms Incubation Incubation Starting cell Growth Medium

[7] = system: Xanthomonas campestris; test: as above; type: cell-based, Xanthomonas campestris pv. citri; settings: 10 µL of MIC and raising concentrations up to 256 µM plated on Mueller-Hinton agar; 28 °C, 24 h; no growth; mean ± SD, 3 biological replicates
Protocol: as §4, §2, §3, §5
(§6) Temperature (°C) Time (h) concentration
(§7) Erwinia carotovora 28 24 5.0 x 10 5 Mueller -Hinton
(§8) Xanthomonas campestris pv. citri 28 24 5.0 x 10 5 Mueller -Hinton
(§9) Pseudomonas syringae pv. tabaci 28 24 5.0 x 10 5 Mueller -Hinton

[8] = system: Bacillus subtilis; test: as above; type: cell-based, Bacillus subtilis ATCC 23857; settings: 10 µL of MIC and raising concentrations up to 256 µM plated on Mueller-Hinton agar; 37 °C, 24 h; no growth; mean ± SD, 3 biological replicates
Protocol: as §4, §2, §3, §5

[9] = system: Staphylococcus aureus; test: as above; type: cell-based, Staphylococcus aureus ATCC 25923; settings: 10 µL of MIC and raising concentrations up to 256 µM plated on Mueller-Hinton agar; 37 °C, 24 h; no growth; mean ± SD, 3 biological replicates
Protocol: as §4, §2, §3, §5, §6, §7, §8, §9

[10] = system: Xanthomonas campestris; test: microbe, parasite or virus in culture; settings: pv. citri; Mueller-Hinton; 28 °C, 24 h; start 5.0 x 10^5 cells; 256-0.5 µM; mean ± SD of 3 biological repetitions (SD 0 not displayed); N/A = no antimicrobial activity observed
Protocol: as §1, §2, §3

[11] = system: Bacillus subtilis; test: microbe, parasite or virus in culture; settings: ATCC 23857; Mueller-Hinton; 37 °C, 24 h; start 5.0 x 10^5 cells; 256-0.5 µM; mean ± SD of 3 biological repetitions (SD 0 not displayed); N/A = no antimicrobial activity observed
Protocol: as §1, §2, §3

[12] = system: Erwinia carotovora; test: microbe, parasite or virus in culture; settings: Mueller-Hinton; 28 °C, 24 h; start 5.0 x 10^5 cells; 256-0.5 µM; mean ± SD of 3 biological repetitions (SD 0 not displayed); N/A = no antimicrobial activity observed
Protocol: as §1, §2, §3

[13] = system: Escherichia coli; test: microbe, parasite or virus in culture; settings: ATCC 25922; Mueller-Hinton; 37 °C, 24 h; start 5.0 x 10^5 cells; 256-0.5 µM; mean ± SD of 3 biological repetitions (SD 0 not displayed); N/A = no antimicrobial activity observed
Protocol: as §1, §2, §3

[14] = system: Pseudomonas syringae pv. tabaci; test: microbe, parasite or virus in culture; settings: Mueller-Hinton; 28 °C, 24 h; start 5.0 x 10^5 cells; 256-0.5 µM; mean ± SD of 3 biological repetitions (SD 0 not displayed); N/A = no antimicrobial activity observed
Protocol: as §1, §2, §3

[15] = system: Staphylococcus aureus; test: microbe, parasite or virus in culture; settings: ATCC 25923; Mueller-Hinton; 37 °C, 24 h; start 5.0 x 10^5 cells; 256-0.5 µM; mean ± SD of 3 biological repetitions (SD 0 not displayed); N/A = no antimicrobial activity observed
Protocol: as §1, §2, §3

[16] = system: Erwinia carotovora; test: Microbicidal activity (minimal killing concentration), plating on agar; type: cell-based; settings: 10 µL of MIC and raising concentrations up to 256 µM plated on Mueller-Hinton agar; 28 °C, 24 h; no growth; mean ± SD, 3 biological replicates
Protocol: as §4, §2, §3, §5, §6, §7, §8, §9

[17] = system: Pseudomonas syringae pv. tabaci; test: as above; type: cell-based; settings: 10 µL of MIC and raising concentrations up to 256 µM plated on Mueller-Hinton agar; 28 °C, 24 h; no growth; mean ± SD, 3 biological replicates
Protocol: as §4, §2, §3, §5, §6, §7, §8, §9

| SMILES | MIC [1] [µM] | MIC [2] [µM] | MIC [3] [µM] | MIC [4] [µM] | MIC [5] [µM] | Minimum microbicidal concentration, Escherichia coli [6] [µM] | Minimum microbicidal concentration, Xanthomonas campestris [7] [µM] | Minimum microbicidal concentration, Bacillus subtilis [8] [µM] | Minimum microbicidal concentration, Staphylococcus aureus [9] [µM] | Minimum inhibitory concentration, Xanthomonas campestris [10] [µM] | Minimum inhibitory concentration, Bacillus subtilis [11] [µM] | Minimum inhibitory concentration, Erwinia carotovora [12] [µM] | Minimum inhibitory concentration, Escherichia coli [13] [µM] | Minimum inhibitory concentration, Pseudomonas syringae pv. tabaci [14] [µM] | Minimum inhibitory concentration, Staphylococcus aureus [15] [µM] | Minimum microbicidal concentration, Erwinia carotovora [16] [µM] | Minimum microbicidal concentration, Pseudomonas syringae pv. tabaci [17] [µM] |
| --- | --- | --- | --- | --- | --- | --- | --- | --- | --- | --- | --- | --- | --- | --- | --- | --- | --- |
| C[C@@H]1[C@H](O)[C@@H](C)/C=C/C=C/C=C/C=C/C=C/C=C/C=C/[C@H](O[C@@H]2O[C@H](C)[C@@H](O)[C@H](N)[C@@H]2O)C[C@@H]2O[C@](O)(C[C@@H](O)C[C@@H](O)[C@H](O)CC[C@@H](O)C[C@@H](O)CC(=O)O[C@H]1C)C[C@H](O)[C@H]2C(=O)O [Amphotericin B] | 0.54 (≈ 0.499 µg/mL) | 0.13 (≈ 0.12 µg/mL) | 2.16 (≈ 2 µg/mL) | 0.54 (≈ 0.499 µg/mL) | 0.27 (≈ 0.25 µg/mL) |  |  |  |  |  |  |  |  |  |  |  |  |
| CC1(C)S[C@@H]2[C@H](NC(=O)[C@H](N)c3ccccc3)C(=O)N2[C@H]1C(=O)O [Ampicilin] |  |  |  |  |  | 10.77 ± 0.0 | 5.38 ± 0.0 | 0.08 ± 0.0 | 10.77 ± 0.0 | 1.35 (≈ 0.472 µg/mL) | 0.08 (≈ 0.028 µg/mL) | 1.35 (≈ 0.472 µg/mL) | 10.77 (≈ 3.76 µg/mL) | 2.69 (≈ 0.94 µg/mL) | 5.38 (≈ 1.88 µg/mL) | 2.70 ± 0.0 | 10.77 ± 0.0 |
